Laboratory results taken from ChEMBL document CHEMBL3351865, “N-aryl-2-aminobenzimidazoles: novel, efficacious, antimalarial lead compounds” (J Med Chem, 2014).
≈ marks a conversion by molar mass, not a printed value. Blank lines part the entries; values can stand above or below the molecule they belong to.

Experiments:
[1] = system: Plasmodium falciparum; test: microbe, parasite or virus in culture; conditions: NF54
Description: Antiplasmodial activity against Plasmodium falciparum NF54 by SYBR-green based assay

[2] = in vitro; conditions: human, THP-1 cells
Description: Selectivity index, ratio of IC50 for human THP1 cells to IC50 for Plasmodium falciparum

[3] = system: Plasmodium falciparum; test: microbe, parasite or virus in culture; conditions: K1
Description: Antiplasmodial activity against Plasmodium falciparum K1 by SYBR-green based assay

[4] = system: Plasmodium berghei; conditions: dose 50 mg/kg
Description: Antiplasmodial activity against Plasmodium berghei infected in mouse assessed as increase in mean survival days at 50 mg/kg treated with four once daily doses

[5] = in vivo; conditions: mouse, 50 mg/kg
Description: Half life in Plasmodium berghei infected mouse at 50 mg/kg treated with four once daily doses

[6] = Cmax in Plasmodium berghei infected mouse at 100 mg/kg treated with four once daily doses; assay type: ADME, organism-based; design: dose 100 mg/kg; conditions: in vivo
[7] = Half life in Plasmodium berghei infected mouse at 100 mg/kg treated with four once daily doses; assay type: ADME, organism-based; design: dose 100 mg/kg; conditions: in vivo
[8] = AUClast in Plasmodium berghei infected mouse at 100 mg/kg treated with four once daily doses; assay type: ADME, organism-based; design: time 0 - last, dose 100 mg/kg; conditions: plasma
[9] = in vivo; conditions: mouse, 30 mg/kg
Description: Half life in Plasmodium berghei infected mouse at 30 mg/kg treated with four once daily doses

[10] = system: Plasmodium berghei; test: Antiplasmodial activity against Plasmodium berghei infected in mouse assessed as increase in mean survival days at 100 mg/kg treated with four once daily doses; assay type: functional
[11] = system: Plasmodium berghei; test: animal or person; conditions: in Mus musculus, read-out: INH
Description: Antiplasmodial activity against Plasmodium berghei infected in mouse assessed as reduction in parasitemia at 30 mg/kg treated with four once daily doses

[12] = system: Plasmodium berghei; conditions: dose 30 mg/kg
Description: Antiplasmodial activity against Plasmodium berghei infected in mouse assessed as increase in mean survival days at 30 mg/kg treated with four once daily doses

[13] = in vivo; conditions: mouse, plasma, 30 mg/kg
Description: AUClast in Plasmodium berghei infected mouse at 30 mg/kg treated with four once daily doses

[14] = in vivo; conditions: mouse, 30 mg/kg; remark: listed apart in the source
[15] = system: Plasmodium berghei; test: Antiplasmodial activity against Plasmodium berghei infected in mouse assessed as reduction in parasitemia at 100 mg/kg treated with four once daily doses; assay type: functional
[16] = system: Plasmodium berghei; test: animal or person; conditions: in Mus musculus, read-out: INH; remark: listed apart in the source
Description: Antiplasmodial activity against Plasmodium berghei infected in mouse assessed as reduction in parasitemia at 50 mg/kg treated with four once daily doses

[17] = in vivo; conditions: mouse, plasma, 50 mg/kg
Description: AUClast in Plasmodium berghei infected mouse at 50 mg/kg treated with four once daily doses

[18] = in vivo; conditions: mouse, 50 mg/kg; remark: listed apart in the source
[19] = in vitro; conditions: human, microsomes
Description: Clearance in human microsomes

[20] = in vitro; conditions: human, hepatocytes
Description: Clearance in human hepatocytes assessed per million cells

[21] = physchem; conditions: buffer, pH 7.4
Description: Lipophilicity, logD of the compound at pH 7.4

[22] = in vitro; conditions: human, plasma
Description: Unbound fraction in human plasma

[23] = physchem; conditions: buffer
Description: Aqueous solubility of the compound

[24] = in vivo; conditions: rat, iv, 1 mg/kg
Description: Volume of distribution at steady state in rat at 1 mg/kg, iv

[25] = in vivo; conditions: rat, po, 5 mg/kg
Description: Half life in rat at 5 mg/kg, po

[26] = in vivo; conditions: rat, po, 5 mg/kg; remark: listed apart in the source
[27] = in vivo; conditions: rat, iv, 1 mg/kg; remark: listed apart in the source
Description: Half life in rat at 1 mg/kg, iv

[28] = in vivo; conditions: rat, plasma, iv, 1 mg/kg
[29] = in vivo; conditions: rat, po, 5 mg/kg; remark: listed apart in the source
[30] = in vivo; conditions: rat, iv, 1 mg/kg; remark: listed apart in the source
Description: Clearance in rat at 1 mg/kg, iv

[31] = system: Plasmodium falciparum; test: microbe, parasite or virus in culture; conditions: W2
Description: Antiplasmodial activity against Plasmodium falciparum W2 harboring mutations conferring drug-resistance by SYBR-green based assay

[32] = system: Plasmodium falciparum; test: microbe, parasite or virus in culture; conditions: 7G8
Description: Antiplasmodial activity against Plasmodium falciparum 7G8 harboring mutations conferring drug-resistance by SYBR-green based assay

[33] = molecular target: Voltage-gated inwardly rectifying potassium channel KCNH2 (Homo sapiens, UniProt Q12809)
[34] = system: Plasmodium falciparum; test: microbe, parasite or virus in culture; conditions: SB1-A6
Description: Antiplasmodial activity against Plasmodium falciparum SB1-A6 harboring mutations conferring drug-resistance by SYBR-green based assay

[35] = system: Plasmodium falciparum; test: microbe, parasite or virus in culture; conditions: Dd2
Description: Antiplasmodial activity against Plasmodium falciparum Dd2 harboring mutations conferring drug-resistance by SYBR-green based assay

Voltage-gated inwardly rectifying potassium channel KCNH2, sequence (Q12809 whole entry): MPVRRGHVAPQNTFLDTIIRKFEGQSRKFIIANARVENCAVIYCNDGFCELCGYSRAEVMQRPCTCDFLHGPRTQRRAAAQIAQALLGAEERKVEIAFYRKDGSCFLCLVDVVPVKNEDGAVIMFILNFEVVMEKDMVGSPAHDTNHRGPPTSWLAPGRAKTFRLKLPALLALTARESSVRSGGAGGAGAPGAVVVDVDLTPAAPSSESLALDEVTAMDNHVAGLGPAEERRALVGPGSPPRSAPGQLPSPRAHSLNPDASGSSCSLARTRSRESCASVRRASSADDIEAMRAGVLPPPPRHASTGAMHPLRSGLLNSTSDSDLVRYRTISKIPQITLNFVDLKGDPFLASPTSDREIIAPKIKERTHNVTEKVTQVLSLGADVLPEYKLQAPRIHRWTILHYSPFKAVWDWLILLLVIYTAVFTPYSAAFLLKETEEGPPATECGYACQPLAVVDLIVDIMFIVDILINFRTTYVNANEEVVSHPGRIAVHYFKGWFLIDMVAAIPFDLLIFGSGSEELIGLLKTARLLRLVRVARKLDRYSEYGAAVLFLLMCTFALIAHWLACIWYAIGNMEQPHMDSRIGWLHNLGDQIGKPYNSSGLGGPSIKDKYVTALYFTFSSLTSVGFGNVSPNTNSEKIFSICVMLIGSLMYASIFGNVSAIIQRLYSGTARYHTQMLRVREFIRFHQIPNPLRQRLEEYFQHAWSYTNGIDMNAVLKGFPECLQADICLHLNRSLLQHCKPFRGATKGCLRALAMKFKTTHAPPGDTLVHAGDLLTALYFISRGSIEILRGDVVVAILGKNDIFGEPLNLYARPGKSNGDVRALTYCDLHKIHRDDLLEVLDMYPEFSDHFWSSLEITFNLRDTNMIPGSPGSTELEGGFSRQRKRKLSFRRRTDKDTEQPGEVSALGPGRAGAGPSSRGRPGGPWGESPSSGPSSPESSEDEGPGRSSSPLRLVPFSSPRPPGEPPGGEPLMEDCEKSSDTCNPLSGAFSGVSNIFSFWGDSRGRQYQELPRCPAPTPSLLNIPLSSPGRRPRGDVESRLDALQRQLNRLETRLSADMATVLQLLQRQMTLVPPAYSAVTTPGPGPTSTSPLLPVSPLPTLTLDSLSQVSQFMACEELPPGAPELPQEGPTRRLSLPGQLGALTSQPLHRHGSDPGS

IC50 [1]: > 500 nM | IC50 [3]: > 500 nM
Structure (SMILES): Brc1ccc(Nc2nc3ccc(N4CCOCC4)cc3[nH]2)nc1
selectivity ratio [2]: > 100

IC50 [1]: > 500 nM | IC50 [3]: > 500 nM
Structure (SMILES): CN1CCN(c2nc3[nH]c(Nc4ccc(Br)cn4)nc3cc2F)CC1
selectivity ratio [2]: > 100

IC50 [1]: 29 nM | IC50 [3]: 54 nM
Structure (SMILES): CN1CCN(c2cc3[nH]c(Nc4ccc(C(F)(F)F)cn4)nc3cn2)CC1
selectivity ratio [2]: 1030

IC50 [1]: > 500 nM | IC50 [3]: > 500 nM
Structure (SMILES): CN1CCN(c2ccc3nc(Nc4ccc(C(F)(F)F)nc4)[nH]c3c2)CC1
selectivity ratio [2]: > 500

microsomal CLint [19]: < 4 µL/min/mg | hepatocyte CLint [20]: 7.5 µL/min/1e6 cells | logD [21]: 3.2 | IC50 [1]: 93 nM | fraction unbound [22]: 0.275 | solubility [23]: > 1000 µM | IC50 [3]: 166 nM
Structure (SMILES): CN1CCN(Cc2ccc3nc(Nc4ccc(C(F)(F)F)cn4)[nH]c3c2)CC1

IC50 [1]: 450 nM | IC50 [3]: > 500 nM
Structure (SMILES): CN1CCN(C(=O)c2ccc3nc(Nc4ccc(Br)cn4)[nH]c3c2)CC1
selectivity ratio [2]: 548

IC50 [1]: 130 nM | IC50 [3]: 210 nM
Structure (SMILES): OCCN1CCN(c2ccc3nc(Nc4ccc(C(F)(F)F)cn4)[nH]c3c2)CC1
selectivity ratio [2]: > 1110

IC50 [1]: 53 nM | IC50 [3]: 85 nM
Structure (SMILES): CN1CCC(c2ccc3nc(Nc4ccc(C(F)(F)F)cn4)[nH]c3c2)C1 (centres undefined)

microsomal CLint [19]: < 4 µL/min/mg | hepatocyte CLint [20]: 9 µL/min/1e6 cells | logD [21]: 3 | IC50 [1]: 110 nM | fraction unbound [22]: 0.301 | solubility [23]: > 1000 µM | IC50 [3]: 160 nM
Structure (SMILES): CN1CCN(c2cc(Cl)c3nc(Nc4ccc(Br)cn4)[nH]c3c2)CC1

IC50 [1]: 56 nM | IC50 [3]: 119 nM
Structure (SMILES): FC(F)(F)c1ccc(Nc2nc3ccc(N4CCN5CCCC5C4)cc3[nH]2)nc1 (centres undefined)
selectivity ratio [2]: 357

microsomal CLint [19]: 21.8 µL/min/mg | hepatocyte CLint [20]: 11.3 µL/min/1e6 cells | logD [21]: 3.9 | IC50 [1]: 17 nM | fraction unbound [22]: 0.051 | solubility [23]: 5.6 µM (≈ 2.14 µg/mL) | IC50 [3]: 26 nM
Structure (SMILES): Cc1nc(Nc2nc3cnc(N4CCN(C)CC4)cc3[nH]2)cc(C2CC2)c1F

IC50 [1]: 44 nM | IC50 [3]: 110 nM
Structure (SMILES): Cc1nc(Nc2nc3cnc(N4CCN(C)CC4)cc3[nH]2)ccc1Cl
selectivity ratio [2]: 500

IC50 [1]: 80 nM | IC50 [3]: 130 nM
Structure (SMILES): CN1CCC(c2ccc3nc(Nc4ncc(C(F)(F)F)cc4Cl)[nH]c3c2)CC1

The next lines start with the molecule.

Structure (SMILES): CN1CCN(c2ccc3nc(Nc4ccc(C(F)(F)F)cn4)[nH]c3c2)CC1
MSD [4]: 15 days | half-life [5]: 5.4 h | Cmax [6]: 6.1 µM | half-life [7]: 4.9 h | AUC(0-t) [8]: 41.6 µM·h | IC50 [1]: 82 nM | half-life [9]: 3.7 h | MSD [10]: 24 days | inhibition in vivo at 30 mg/kg [11]: 81.3% | MSD [12]: 10 days | AUC(0-t) [13]: 19.2 µM·h | selectivity ratio [2]: 890 | Cmax [14]: 3.3 µM | inhibition in vivo at 100 mg/kg [15]: 99.9% | inhibition in vivo at 50 mg/kg [16]: 99.9% | AUC(0-t) [17]: 33.7 µM·h | Cmax [18]: 5 µM | IC50 [3]: 120 nM

Structure (SMILES): CN1CCC(c2ccc3nc(Nc4ccc(C(F)(F)F)cn4)[nH]c3c2)CC1
MSD [4]: 30 days | microsomal CLint [19]: < 4 µL/min/mg | Vd [24]: 16.9 L/kg | half-life [5]: 18.5 h | hepatocyte CLint [20]: 4.7 µL/min/1e6 cells | half-life [25]: 19.2 h | logD [21]: 3 | IC50 [1]: 36 nM | fraction unbound [22]: 0.134 | solubility [23]: 121 µM (≈ 45.4 µg/mL) | half-life [9]: 9.3 h | inhibition in vivo at 30 mg/kg [11]: 98.9% | MSD [12]: 25 days | AUC(0-t) [13]: 54 µM·h | Cmax [26]: 0.5 µM | Cmax [14]: 5.2 µM | half-life [27]: 14.9 h | inhibition in vivo at 50 mg/kg [16]: 99.8% | AUC [28]: 6 µM·h | bioavailability [29]: 79% | AUC(0-t) [17]: 131 µM·h | Cmax [18]: 8.8 µM | clearance [30]: 14.9 mL/min/kg | IC50 [3]: 59 nM

Structure (SMILES): CN1CCN(c2ccc3nc(Nc4ccccn4)[nH]c3c2)CC1
IC50 [1]: > 500 nM | selectivity ratio [2]: > 86 | IC50 [3]: > 500 nM

Structure (SMILES): CN1C2CCC1CC(c1ccc3nc(Nc4ccc(C(F)(F)F)cn4)[nH]c3c1)C2 (centres undefined)
IC50 [1]: 94 nM | selectivity ratio [2]: 308 | IC50 [3]: 200 nM

Structure (SMILES): Cc1nc(Nc2nc3ccc(N4CCN(C)CC4)cc3[nH]2)ccc1F
IC50 [1]: 48 nM | IC50 [31]: 106 nM | IC50 [32]: 98.8 nM | selectivity ratio [2]: > 1050 | IC50 [3]: 110 nM

Structure (SMILES): Cc1ccc(Nc2nc3ccc(N4CCN(C)CC4)cc3[nH]2)nc1
microsomal CLint [19]: 4.8 µL/min/mg | hepatocyte CLint [20]: 19.5 µL/min/1e6 cells | IC50 [33]: 12700 nM | logD [21]: 2.2 | IC50 [1]: 130 nM | fraction unbound [22]: 0.183 | solubility [23]: 1170 µM (≈ 377 µg/mL) | IC50 [34]: 86.2 nM | IC50 [35]: 201 nM | IC50 [31]: 437 nM | IC50 [32]: 307 nM | selectivity ratio [2]: > 385 | IC50 [3]: 270 nM

Structure (SMILES): CN1CCN(c2ccc3nc(Nc4ccc(Br)cc4)[nH]c3c2)CC1
IC50 [1]: 210 nM | selectivity ratio [2]: > 1190 | IC50 [3]: 390 nM

Structure (SMILES): CCc1nc(N)nc(N)c1-c1ccc(Cl)cc1 [PYRIMETHAMINE]
IC50 [34]: 10.9 nM

Structure (SMILES): O=C1C(O)=C([C@H]2CC[C@H](c3ccc(Cl)cc3)CC2)C(=O)c2ccccc21 [ATOVAQUONE]
IC50 [34]: > 2000 nM | IC50 [35]: 2 nM | IC50 [32]: 2.3 nM | IC50 [3]: 2.3 nM

Structure (SMILES): Cc1nc(Nc2nc3ccc(C4CCN(C)CC4)cc3[nH]2)cc(C2CC2)c1F
IC50 [1]: 13 nM | selectivity ratio [2]: 692 | IC50 [3]: 30 nM

Structure (SMILES): C[C@@H]1CC[C@H]2[C@@H](C)C(=O)O[C@@H]3O[C@@]4(C)CC[C@@H]1[C@]32OO4 [ARTEMISININ]
IC50 [1]: 7.1 nM | IC50 [34]: 16.6 nM | IC50 [35]: 10.3 nM | IC50 [31]: 6.5 nM | IC50 [32]: 1.3 nM

Structure (SMILES): Brc1ccc(Nc2nc3ccc(N4CCNCC4)cc3[nH]2)nc1
MSD [4]: 11 days | half-life [5]: 4.5 h | IC50 [1]: 39 nM | selectivity ratio [2]: 961 | inhibition in vivo at 50 mg/kg [16]: 99.9% | AUC(0-t) [17]: 202 µM·h | Cmax [18]: 25.5 µM | IC50 [3]: 278 nM
